From patent US20120189706A1, “Macrocystis Pyrifera Derived Health and Wellness Products and Methods of Using the Same” (Knocean Sciences, Inc., priority 2009, published 2012) come the findings set out here.

As a reminder, the pIC50 is the IC50 on a negative log10 scale, so that one unit is a factor of ten. By IC50 is commonly meant the concentration that gives 50% inhibition.

pIC50: −log10 of the molar value. Values after ≈ are worked out from the molar mass of the structure shown.

In one series the test system is HSV-1 strain HF. Kind of series: HSV Cytoprotection assay. It is filed as cell-based. As to the method: The HSV Cytoprotection assay uses Vero cells and HSV-1 strain HF or HSV-2 strain MS. […] Each assay includes acyclovir (ACV) as a positive control. […] The standard viruses used for this assay are HSV-1 strain HF and HSV-2 strain MS (other viruses available upon request). […] For each assay, a pre-titered aliquot of virus is removed from the freezer (−80° C.) and allowed to thaw slowly to room temperature in a biological safety cabinet. The virus is resuspended and diluted into tissue culture medium such that the amount of virus added to each well is the amount determined to give between 85 to 95% cell killing at 5 days post-infection.

A short description of series [1]: Compound cytotoxicity in HSV Cytoprotection assay (MTS). Type of series: cell-based. The note with it: African green monkey (Cercopithecus aethiops), Vero cells (uninfected, cells plus compound only), read-out: TC50.
Series [2] relates to Influenza A strain A/Victoria/3/75 (H3N2). Kind of series: Influenza A Cytoprotection assay. It is filed as cell-based. The note with it: Influenza A virus, H3N2, 168 h, MDCK cells, 7 days.
The next series deals with RSV strain Long. Put plainly: Respiratory Syncytial Virus (RSV) Cytoprotection assay. It is filed as cell-based. The note with it: human respiratory syncytial virus, 168 h, A549 cells, 7 days. The procedure:
The Respiratory Syncytial Virus (RSV) Cytoprotection assay uses A549 cells and RSV strain Long. […] Each assay includes ribavirin (RBV) as a positive control. […] The virus used for this assay is RSV strain Long. […] For each assay, a pre-titered aliquot of virus is removed from the freezer (−80° C.) and allowed to thaw slowly to room temperature in a biological safety cabinet. The virus is resuspended and diluted into tissue culture medium such that the amount of virus added to each well is the amount determined to give between 85 to 95% cell killing at 6-7 days post-infection.

Another series relates to Coxsackie A strain A7. Kind of series: Coxsackie A virus Cytoprotection assay. It is filed as cell-based. The note with it: MRC5, 168 h, MRC-5 cells, 7 days. As to the method:
(§1) The Coxsackie A virus Cytoprotection assay uses MRC-5 cells and Coxsackie A strains A7 or A21. […] Each assay includes ribavirin (RBV) as a positive control. […] The viruses used for this assay are Coxsackie A strains A7 or A21. […] For each assay, a pre-titered aliquot of virus is removed from the freezer (−80° C.) and allowed to thaw slowly to room temperature in a biological safety cabinet. The virus is resuspended and diluted into tissue culture medium such that the amount of virus added to each well is the amount determined to give between 85 to 95% cell killing at 7 days post-infection.

Another series has as its system Vero E6 cells. Kind of series: Compound cytotoxicity in Dengue Virus Cytoprotection assay (MTS). The note with it: 7 days.
The subject of a further series is HIV-1 strain IIIB. Put plainly: HIV-1 Cytoprotection assay. Type of series: cell-based.
The next series relates to Rhinovirus strain 1B. Kind of series: Rhinovirus Cytoprotection assay in MRC-5 cells. It is filed as cell-based. The procedure:
as §1, with “Rhinovirus” for “Coxsackie A virus”, “Rhinovirus” for “Coxsackie A”, “1B, 14,” for “A7”, “26.” for “A21.”, “enviroxime (ENV)” for “ribavirin (RBV)”, “6-7” for “7”

Another series concerns MRC-5 cells. Kind of series: Compound cytotoxicity in Rhinovirus Cytoprotection assay (MTS). The note with it: 7 days. Type of series: cell-based, Human. An excerpt: The Rhinovirus Cytoprotection assay uses MRC-5 cells and Rhinovirus strains 1B, 14, or 26. […] Each assay includes enviroxime (ENV) as a positive control.

Take `Nc1nc2c(ncn2COCCO)c(=O)[nH]1` [Acyclovir, acyclovir]: the pIC50 in the series on HSV-1 strain HF (Human alphaherpesvirus 1, 120 h, HSV-1 Strain HF, Vero cells, 5 days) was 5.16. In the series with HSV-1 strain HF (TC50/IC50, HSV-1), the “Antiviral Index” value is reported as >14.5. Also, in series [1], the CC50 at 5 days is > 100 µM.

As for `NC(=O)c1ncn([C@@H]2O[C@H](CO)[C@@H](O)[C@H]2O)n1` [Ribavirin, ribavirin], the figures for the IC50 (in [2]; with RSV strain Long; with Coxsackie A strain A7) were 4.45 µg/mL (≈ 18.2 µM), 12.2 µg/mL (≈ 50 µM) and 7.04 µg/mL (≈ 28.8 µM), respectively. Moreover, the TC50 in the series on Vero E6 cells was >200 µg/mL.

`Cc1cn([C@H]2C[C@H](N=[N+]=[N-])[C@@H](CO)O2)c(=O)[nH]c1=O` [AZT] gave a negative-log IC50 (pIC50) with HIV-1 strain IIIB (HIV-1 Strain IIIB, CEM-SS cells, 6 days) of 6.76. For the same compound, the “Antiviral Index” value in the series on HIV-1 strain IIIB (TC50/IC50, HIV-1) is given as >5.83. In the series with CEM-SS cells, the CC50 was > 1 µM.

Regarding `CC(C)S(=O)(=O)n1c(N)nc2ccc(/C(=N/O)c3ccccc3)cc21` [Enviroxime, enviroxime], the IC50 in the series on Rhinovirus strain 1B (Enterovirus, MRC5, 168 h, Rhinovirus Strain 1B, MRC-5 cells, 7 days) stood at 0.485 µg/mL (≈ 1.35 µM). In the series on Rhinovirus strain 1B (TC50/IC50, Rhinovirus), the “Antiviral Index” value is listed as >20.6. Moreover, the TC50 in the series on MRC-5 cells is >10 µg/mL.
